From patent US20220056014A1, “PHENYLPYRROLIDINE COMPOUND AND USE THEREOF” (WUHAN HUMANWELL INNOVATIVE DRUG RESEARCH AND DEVELOPMENT …, priority 2018, published 2022)

Legend:
[1] = test system: LPS-induced secretion of TNFα in human PBMCs; assay: LPS-induced secretion of TNFα in human PBMCs; type: cell-based; details: Homo sapiens, PBMC, 24 h, LPS 10 ng/ml
In short: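 PBMCs isolated by Lymphoprep density centrifugation were seeded at 5×10^4/well in RPMI1640 + 10% FBS and given compound, with 30 min pre-incubation, then stimulated with 10 ng/ml LPS (final). After 24 h, supernatant TNF-α was measured by ELISA kit.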

[2] = Mouse pharmacokinetic test; type: in vivo, CD-1 mice; details: male, CD-1, plasma, oral gavage 10 mg/kg
Experimental: In the rat pharmacokinetic test, 3 male SD rats (180-240 g) were fasted overnight, and orally administered with 10 mg/kg of compound to be tested. Blood was collected before the administration, and 15 min, 30 min, 1 h, 2 h, 4 h, 8 h, and 24 h hours after the administration. The blood sample was centrifuged at 8000 rpm for 6 min at 4° C., and the plasma was collected and stored at −20° C. The plasma collected at each time point was added and mixed with 3-5 times the amount of acetonitrile solution containing an internal standard, vortexed for 1 min, centrifuged at 13,000 rpm for 10 min at 4° C. The supernatant was taken and mixed with 3 times the amount of water, and an appropriate amount of the mixture was taken for LC-MS/MS analysis. The main pharmacokinetic parameters were analyzed with WinNonlin 7.0 software non-compartmental model.
In the mouse pharmacokinetic test, 9 male CD-1 mice (20-25 g) were fasted overnight, and orally administered with 10 mg/kg of the compound to be tested. Bloods of 3 mice were collected at each time point, and bloods of 9 mice were alternately collected in total. In the pharmacokinetic test in canine, 3 male beagle dogs (8-10 kg) were fasted overnight, and orally administered with 5 mg/kg of the compound to be test. In the pharmacokinetic test of cynomolgus monkeys, 3 male cynomolgus monkeys (4 to 6.5 kg) were fasted overnight, and orally administered 20 mg/kg of the compound to be test. The remaining processes are the same as those of the rat pharmacokinetic test.

[3] = test system: Mouse CIA arthritis model; assay: Mouse CIA arthritis model test; type: in vivo, DBA/1 mice; details: 30 mg/kg oral, twice a day for 21 days; for inhibition rate based on clinical score AUC: AUC day 21 to day 42; for Clinical score (endpoint): day 42, highest score 16
Experimental: (1) Preparation of Type II Collagen/Complete Freund's Adjuvant
Preparation of acetic acid: 2N acetic acid was diluted to 100 mM, filtered with 0.22 μm filter membrane, and stored at 4° C.
Preparation of bovine type II collagen solution: bovine type II collagen (CII) was dissolved in 100 mM acetic acid solution and stored at 4° C. overnight. A final concentration of collagen was 8 mg/mL.
Preparation of emulsion: the CII solution stored overnight was mixed with an equal volume of complete Freund's adjuvant, and homogenized on ice by a high-speed homogenizer at 30,000 rpm for approximately 60 min, until the solution formed a stable emulsion.
After DBA/1 mice were anesthetized with isoflurane, 50 μl of prepared collagen emulsion (containing 200 micrograms of CII) was injected subcutaneously in the tail (2-3 cm from the base of the tail) for immunization. The day of the primary immunization was recorded as day 0, and the following days were recorded sequentially. On day 21, the same volume of collagen emulsion was injected into the tail in the same way. Mice in the normal group were not immunized.
On day 21, the mice that had been induced to have arthritis were randomly grouped according to their body weights, such that the average body weight of each group was consistent, and they were randomly divided into 6 treatment groups for administration, with 10 mice in each group.
G1 group included normal mice without being treated; G2 group was given a blank vehicle; G3 to G7 groups were administrated with the compound at a dose of 30 mg/kg, twice a day for 21 days. The volume of oral administration was 10 mL/kg.
After the enhanced immunization, the disease incidence of the mice was observed every day. When the mice began to develop symptoms (clinical symptoms of arthritis emerged), the symptoms were graded as 0 to 4 according to the different degrees of pathological changes (redness, joint deformation), where the highest score for each limb was 4, and the highest score for each animal was 16. The mice were graded at least three times a week.
The area under curve (AUC) of clinical scores of each group from day 21 to day 42 was calculated, and the inhibition rate % of the clinical score AUC of the administration group was calculated:
Inhibition rate %=1−(administration group AUC/blank vehicle group AUC)*100%
The experimental data are expressed as Mean±standard error (Mean±SEM), and the clinical scores were analyzed with One-way ANOVA, where p<0.05 was considered to be a significant difference.

COc1ccc([C@@H]2CN(C(=O)[C@@H](O)CO)C[C@@]2(C)[C@@H](C)O)cc1OC1CN(c2ncc(C)cc2F)C1 [Compound 004, (S)-1-((3S,4S)-4-(3-((1-(3-fluoro-5-methylpyridin-2-yl)azetidin-3-yl)oxy)-4-methoxyphenyl)-3-((R)-1-hydroxyethyl)-3-methylpyrrolidin-1-yl)-2,3-dihydroxypropan-1-one]
IC50 [1]: 5.13 nM | AUC(0-t) [2]: 896 ng·h/mL | Cmax [2]: 378 ng/mL | Tmax [2]: 30 min | inhibition rate based on clinical score AUC [3]: 67.5% | Clinical score (endpoint) [3]: 3.3

COc1ccc([C@@H]2CN(C(=O)[C@@H](O)CO)C[C@@]2(C)[C@@H](C)O)cc1OC1CN(c2ccc(Cl)c(C)n2)C1 [Compound 011, (S)-1-((3S,4S)-4-(3-((1-(5-chloro-6-methylpyridin-2-yl)azetidin-3-yl)oxy)-4-methoxyphenyl)-3-((R)-1-hydroxyethyl)-3-methylpyrrolidin-1-yl)-2,3-dihydroxypropan-1-one]
IC50 [1]: 1.55 nM | AUC(0-t) [2]: 1050 ng·h/mL | Cmax [2]: 316 ng/mL | Tmax [2]: 30 min | inhibition rate based on clinical score AUC [3]: 49.3% | Clinical score (endpoint) [3]: 4.8

COc1ccc([C@@H]2CN(C(=O)[C@@H](O)CO)C[C@@]2(C)[C@@H](C)O)cc1OC1CN(c2ccc(C)cn2)C1 [Positive control compound, reference compound]
IC50 [1]: 3.32 nM | AUC(0-t) [2]: 237 ng·h/mL | Cmax [2]: 142 ng/mL | Tmax [2]: 15 min | inhibition rate based on clinical score AUC [3]: 42.3% | Clinical score (endpoint) [3]: 4.4

COc1ccc([C@@H]2CN(C(=O)[C@@H](O)CO)C[C@@]2(C)[C@@H](C)O)cc1OC1CN(c2ccc(C)c(C)n2)C1 [Compound 007, (S)-1-((3S,4S)-4-(3-((1-(5,6-dimethylpyridin-2-yl)azetidin-3-yl)oxy)-4-methoxyphenyl)-3-((R)-1-hydroxyethyl)-3-methylpyrrolidin-1-yl)-2,3-dihydroxypropan-1-one]
IC50 [1]: 2.24 nM | AUC(0-t) [2]: 332 ng·h/mL | Cmax [2]: 125 ng/mL | Tmax [2]: 30 min | inhibition rate based on clinical score AUC [3]: 77.2% | Clinical score (endpoint) [3]: 3.1
